Test results from patent publication US20100197605A1, “THERAPEUTIC USE OF PEPTIDE YGLF AND COMBINATION WITH KVLPVPQ” (priority 2007, published 2010).
Where no end group is shown, it is not given here.

How the values were obtained:
[1] = test system: cyclic AMP generation in human peripheral blood mononuclear cells (PBMC); test: cAMP induction assay (ELISA); assay type: cell-based; conditions: single peptide, 10 min at 37° C.
Experimental: The cAMP kit was used as an immunoassay for the quantitative determination of cyclic AMP generation in human peripheral blood mononuclear cells (PBMC). PBMC were placed in 96-well microtitier plates (50 microliters of cells at 4×10^6/ml) and 50 microliters of medium alone (background control), forskolin (cAMP positive control; 50 micrograms per ml), or test peptides were added. Plates were mixed and incubated for 10 min at 37° C. and the cells were lysed by the addition of 50 microliters of 3% perchloric acid. NaOH was added to neutralize the samples. Plates were centrifuged for 15 min at 2500 rpm and the supernatants removed. The supernatants (diluted 2-fold in assay buffer) were then assayed for the levels of cAMP by ELISA.

IL-5, spleen cells = test: Th1/Th2 cytokine profiling assay, IL-5; assay type: cell-based, Balb/c mice; conditions: 10 micrograms per ml; Ovalbumin restimulation; 72 hours
Text: (§1) The Balb/c mice (originated in 1923, it is a popular strain and is used in many different research disciplines. Also classified as an inbred from the production of 20 or more successive brother-sister matings, the Balb/c mouse is albino and small in size) were immunized on Days 1, 15, and 29 with Ovalbumin (Ovalbumin is the main protein found in egg white, commonly used to stimulate an immunological reaction in test animals) in PBS (5 micrograms/injection). On day 50, spleens of the mice were harvested (3 weeks after last boost with Ovalbumin). […] Thereafter, additional Ovalbumin was added to the cells at 10 micrograms/ml for in vitro restimulation of the cells. 72 hours later, cell supernatants were harvested and assayed using the Becton Dickinson Mouse Th1/Th2 Cytokine CBA Kit. This kit can be used to measure Interleukin-2 (IL-2), Interleukin-4 (IL-4), Interleukin-5 (IL-5), Interferon-γ (IFN-γ), and Tumor Necrosis Factor-α (TNF-α) protein levels in a single sample.

HUVEC = test: Endothelial tube formation assay; assay type: cell-based, human; conditions: 10 micrograms per ml, single peptide, 20 hours
Text: Positive control was vehicle only.

TNF-a, spleen cells = test: Th1/Th2 cytokine profiling assay, TNF-a; assay type: cell-based, Balb/c mice; conditions: 10 micrograms per ml; Ovalbumin restimulation; 72 hours
Text: as §1

IL-2, spleen cells = test: Th1/Th2 cytokine profiling assay, IL-2; assay type: cell-based, Balb/c mice; conditions: 10 micrograms per ml; Ovalbumin restimulation; 72 hours
Text: as §1

RAW 264.7 cells = test: Phagocytosis assay (Fluorescein-labeled Escherichia coli, flow cytometry); conditions: 10 micrograms per ml, single peptide, 30 min preincubation, 60 min ingestion
Experimental: RAW 264.7 (Mouse leukaemic monocyte macrophage cell line) cells were obtained from ATCC and grown in RPMI 1640 medium containing 10% FBS. Cells were incubated in 12×75 mm tubes at 37° C. with test peptides—10 micrograms per ml—for 30 min prior to adding Fluorescein-labeled Escherichia coli bacteria as the agent to be ingested. After the cells were incubated for additional 60 min at 37° C. and allowed to ingest the Fluorescein-labeled Escherichia coli bacteria, cells were fixed with 1% paraformaldehyde. The samples were then analyzed by flow cytometry to determine the amount of phagocytosis as a function of brightness (the greater the phagocytic activity, the more fluorescence in the macrophage population). Data are reported as % positive and the mean fluorescence intensity (MFI) of positively stained cells.

[2] = test system: hepatitis B virus (HBV) ayw strain; test: HBV experimental assay system, HepG2-2.2.15, secreted HBV DNA by TaqMan PCR; assay type: cell-based; conditions: 10 micrograms per ml, six days, HBV DNA in supernatant
[3] = test system: Human Peripheral Blood Mononuclear Cells (PBMC), B cell proliferation; test: B cell proliferation assay (SAC plus Interleukin-2 stimulated PBMC, 3H-thymidine); assay type: cell-based; conditions: 10 micrograms per ml; single peptide; SAC plus IL-2
Experimental: Human Peripheral Blood Mononuclear Cells (PBMC) were obtained from normal human donors. The B cell proliferation was induced by stimulation of the cells with the B cell mitogen Staphylococcus aureus Cowans I (SAC) plus Interleukin-2, either in the absence (positive proliferation control), or in the presence of test peptides—10 micrograms per ml—to examine their effects on the B cell response. 10^5/well PBMC were plated in 96-well microtiter plates and assayed in duplicate with the peptides. […] At the end of incubation time, the plates were harvested and the cells counted by liquid scintillation for the incorporation of ^3H-thymidine as a measure of B cell proliferation.

IL-4, spleen cells = test: Th1/Th2 cytokine profiling assay, IL-4; assay type: cell-based, Balb/c mice; conditions: 10 micrograms per ml; Ovalbumin restimulation; 72 hours
Text: as §1

IFNγ, spleen cells = test: Th1/Th2 cytokine profiling assay, IFNγ; assay type: cell-based, Balb/c mice; conditions: 10 micrograms per ml; Ovalbumin restimulation; 72 hours
Text: as §1

HIV-1IIIB = test: HIV-1 antiviral assay in CEM-SS cells (MTS readout)
HCMV strain AD169 = test: HCMV plaque formation assay in MRC-5 cells; assay type: cell-based
Experimental: Ganciclovir was used as positive control. […] The following day, peptides were added and tested in duplicates.

Compound	induction of cAMP formation in human peripheral blood cells [1] [%]	IL-5 spleen cells; TH2 response (% of control) (IL-5, spleen cells)	inhibition of the tube formation of endothelial cells (HUVEC) [%]	TNF-a spleen cells; TH1 response (% of control) (TNF-a, spleen cells)	IL-2 spleen cells (% of control) (IL-2, spleen cells)	increase of the phagocytic activity of murine macrophages (RAW 264.7 cells)	inhibition of HBV replication as compared to the virus control infection [2]	inhibition of the proliferation of specifically stimulated human B-cells [3] [%]	IL-4 spleen cells; TH2 response (% of control) (IL-4, spleen cells)	IFNγ spleen cells; TH1 response (% of control) (IFNγ, spleen cells)	antiviral activity of positive control compounds (HIV-1IIIB)	antiviral activity of positive control compound (HCMV strain AD169)
Tyr-Gly-Leu-Phe-OH (YGLF-OH) [peptide 1]	5.1	51.1 % of control	24	78.9 % of control	0.0 % of control	no inhibitory or activating effects	no effect	18	0.0 % of control	58.6 % of control	–	–
Lys-Val-Leu-Pro-Val-Pro-Gln-OH (KVLPVPQ-OH) [peptide 2]	4.1	61.6 % of control	15	90.3 % of control	67.3 % of control	20.0%	–	–	94.9 % of control	41.5 % of control	–	–
CC(C)(C)NC(=O)[C@@H]1CN(Cc2cccnc2)CCN1C[C@@H](O)C[C@@H](Cc1ccccc1)C(=O)N[C@H]1c2ccccc2C[C@H]1O [indinavir]	–	–	–	–	–	–	–	–	–	–	expected levels of antiviral activity	–
Cc1cn([C@H]2C[C@H](N=[N+]=[N-])[C@@H](CO)O2)c(=O)[nH]c1=O [AZT]	–	–	–	–	–	–	–	–	–	–	expected levels of antiviral activity	–
Nc1nc(O)c2ncn(COC(CO)CO)c2n1 [Ganciclovir]	–	–	–	–	–	–	–	–	–	–	–	expected levels of antiviral activity
